Source: ChEMBL document CHEMBL1201862, “PubChem BioAssay data set” (2004)
Blank lines part the entries; values can stand above or below the molecule they belong to. Calls of active or inactive are those of the source.

Columns and labels:
[1] = P. falciparum Dd2 growth inhibitors, dose response, SYBR Green, cherry-picked samples (AID 1159567); assay type: functional, cell-based
[2] = target: T1, Ubiquitin-conjugating enzyme E2 N (Homo sapiens, UniProt P61088); assay type: functional;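 further: Dose-response confirmation in a TR-FRET assay detecting UBC13-driven polyubiquitin chain formation, inhibition measured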
T1 sequence (P61088 whole entry): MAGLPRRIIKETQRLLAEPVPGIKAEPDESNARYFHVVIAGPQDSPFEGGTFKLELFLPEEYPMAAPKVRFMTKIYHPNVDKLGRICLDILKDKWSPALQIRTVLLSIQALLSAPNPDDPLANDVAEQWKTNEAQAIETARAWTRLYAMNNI

[3] = intracellular Trypanosoma cruzi inhibitors in host cells – cell-based, plate reader, cherry-pick samples, set 3, dose response (AID 651818); assay type: functional;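 further: compounds incubated with infected cells for about four days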
[4] = target: Cytochrome P450 2C19 (Homo sapiens, UniProt P33261); test: Cytochrome panel assay with activity outcomes. Panel member name: p450-cyp2c19 Compounds with AC50 equal or less than 10 uM are considered active; assay type: functional; settings: read-out: AC50
Sequence of Cytochrome P450 2C19 (P33261 whole entry): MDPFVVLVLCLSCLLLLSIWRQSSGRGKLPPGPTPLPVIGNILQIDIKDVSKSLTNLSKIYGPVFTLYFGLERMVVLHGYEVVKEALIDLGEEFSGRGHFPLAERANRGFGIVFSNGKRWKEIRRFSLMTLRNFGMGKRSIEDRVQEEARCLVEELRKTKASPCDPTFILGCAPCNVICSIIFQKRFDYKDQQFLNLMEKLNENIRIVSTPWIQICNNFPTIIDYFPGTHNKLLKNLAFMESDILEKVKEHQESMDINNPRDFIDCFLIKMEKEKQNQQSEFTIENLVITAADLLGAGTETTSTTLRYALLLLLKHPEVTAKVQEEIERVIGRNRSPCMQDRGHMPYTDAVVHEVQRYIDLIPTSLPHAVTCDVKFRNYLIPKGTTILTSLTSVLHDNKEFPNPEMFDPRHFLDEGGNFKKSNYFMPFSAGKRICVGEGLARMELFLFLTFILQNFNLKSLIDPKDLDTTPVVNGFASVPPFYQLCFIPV

[5] = target: Cytochrome P450 3A4 (Homo sapiens, UniProt P08684);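 further: CYP3A4 tested as one member of a cytochrome P450 panel screen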
Sequence of Cytochrome P450 3A4 (P08684 whole entry): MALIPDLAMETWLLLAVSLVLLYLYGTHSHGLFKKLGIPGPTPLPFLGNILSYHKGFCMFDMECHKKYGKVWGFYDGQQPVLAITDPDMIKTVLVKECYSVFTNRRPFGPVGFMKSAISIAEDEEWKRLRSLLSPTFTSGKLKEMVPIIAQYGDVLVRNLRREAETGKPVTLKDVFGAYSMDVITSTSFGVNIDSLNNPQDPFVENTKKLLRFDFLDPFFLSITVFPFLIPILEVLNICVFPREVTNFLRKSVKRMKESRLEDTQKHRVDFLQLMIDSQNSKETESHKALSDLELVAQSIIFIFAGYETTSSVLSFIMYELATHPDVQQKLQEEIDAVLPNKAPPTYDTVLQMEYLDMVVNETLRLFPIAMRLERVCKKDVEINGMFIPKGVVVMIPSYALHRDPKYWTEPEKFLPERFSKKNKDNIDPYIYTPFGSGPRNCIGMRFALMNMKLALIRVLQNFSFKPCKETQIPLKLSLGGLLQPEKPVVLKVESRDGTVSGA

[6] = target: T2, Cytochrome P450 1A2 (Homo sapiens, UniProt P05177);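 further: PubChem cytochrome P450 panel assay, CYP1A2 panel member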
T2 sequence (P05177 whole entry): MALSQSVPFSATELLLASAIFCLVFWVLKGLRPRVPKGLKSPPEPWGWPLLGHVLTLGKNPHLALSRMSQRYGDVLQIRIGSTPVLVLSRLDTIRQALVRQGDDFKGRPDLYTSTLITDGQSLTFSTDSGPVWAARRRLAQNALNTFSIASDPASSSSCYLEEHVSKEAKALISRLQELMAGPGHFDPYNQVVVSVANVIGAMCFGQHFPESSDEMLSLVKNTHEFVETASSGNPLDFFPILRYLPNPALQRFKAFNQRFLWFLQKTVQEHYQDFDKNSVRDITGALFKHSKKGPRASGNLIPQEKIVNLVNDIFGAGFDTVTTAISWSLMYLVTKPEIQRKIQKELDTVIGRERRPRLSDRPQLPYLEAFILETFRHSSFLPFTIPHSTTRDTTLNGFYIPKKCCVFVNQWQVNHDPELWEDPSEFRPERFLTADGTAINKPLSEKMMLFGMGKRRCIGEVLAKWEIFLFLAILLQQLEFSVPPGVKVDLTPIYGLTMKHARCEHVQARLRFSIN

[7] = growth suppression of PTEN-null colon cells, dose response, cell-based, HCT116 PTEN knockout (AID 1047); assay type: functional;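 further: HCT116 colon tumor cells with PTEN knocked out; cells exposed to compound for 60 hours before readout; potency for loss of cell viability measured by luminescence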
[8] = growth suppression of beta-catenin-knockout colon cells, dose response, cell-based, HCT116, human colon tumor (AID 1045); assay type: functional;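 further: HCT116 colon tumor cells with beta catenin knocked out; cells exposed to compound for 60 hours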
[9] = target: Paired box protein Pax-8 (Homo sapiens, UniProt Q06710); test: inhibitors of PAX8-driven TPO luciferase reporter, dose response, RMG-I cells, cherry-pick (AID 687027); assay type: functional, cell-based;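 further: luciferase reporter driven by Pax8 target thyroperoxidase promoter measured by SteadyGlo luminescence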
Sequence of Paired box protein Pax-8 (Q06710 whole entry): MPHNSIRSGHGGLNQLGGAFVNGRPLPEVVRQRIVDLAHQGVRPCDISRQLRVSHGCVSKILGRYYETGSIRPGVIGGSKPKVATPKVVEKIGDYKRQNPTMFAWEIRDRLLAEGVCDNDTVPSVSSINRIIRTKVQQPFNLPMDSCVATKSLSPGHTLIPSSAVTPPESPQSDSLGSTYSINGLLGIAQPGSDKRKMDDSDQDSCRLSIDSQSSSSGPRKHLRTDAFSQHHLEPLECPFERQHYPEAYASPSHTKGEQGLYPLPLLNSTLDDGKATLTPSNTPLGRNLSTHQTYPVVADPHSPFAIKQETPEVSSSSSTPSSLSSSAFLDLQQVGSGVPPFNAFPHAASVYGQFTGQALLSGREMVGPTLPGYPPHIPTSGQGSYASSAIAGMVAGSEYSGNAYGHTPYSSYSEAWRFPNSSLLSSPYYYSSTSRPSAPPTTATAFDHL

[10] = Shn3 3'UTR reporter inhibitors, dose response, cell-based, Clone20 osteoblasts, firefly luciferase, cherry-picked (AID 624132); assay type: functional;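 further: firefly luciferase luminescence from reporter carrying the Shn3 3'UTR in osteoblasts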
[11] = HepG2 cell cytotoxicity, dose response, cytotoxicity control for Shn3 inhibitor project, CellTiter-Glo, cherry-picked (AID 624134); assay type: functional, cell-based
[12] = control 3'UTR Renilla luciferase suppression, dose response, counter-screen for Shn3 inhibitor project, cell-based, Clone20-Shn3RL, cherry-picked (AID 624133); assay type: functional
[13] = target: T3, Protein skinhead-1 (Caenorhabditis elegans, UniProt P34707); assay type: functional
T3 sequence (P34707 whole entry): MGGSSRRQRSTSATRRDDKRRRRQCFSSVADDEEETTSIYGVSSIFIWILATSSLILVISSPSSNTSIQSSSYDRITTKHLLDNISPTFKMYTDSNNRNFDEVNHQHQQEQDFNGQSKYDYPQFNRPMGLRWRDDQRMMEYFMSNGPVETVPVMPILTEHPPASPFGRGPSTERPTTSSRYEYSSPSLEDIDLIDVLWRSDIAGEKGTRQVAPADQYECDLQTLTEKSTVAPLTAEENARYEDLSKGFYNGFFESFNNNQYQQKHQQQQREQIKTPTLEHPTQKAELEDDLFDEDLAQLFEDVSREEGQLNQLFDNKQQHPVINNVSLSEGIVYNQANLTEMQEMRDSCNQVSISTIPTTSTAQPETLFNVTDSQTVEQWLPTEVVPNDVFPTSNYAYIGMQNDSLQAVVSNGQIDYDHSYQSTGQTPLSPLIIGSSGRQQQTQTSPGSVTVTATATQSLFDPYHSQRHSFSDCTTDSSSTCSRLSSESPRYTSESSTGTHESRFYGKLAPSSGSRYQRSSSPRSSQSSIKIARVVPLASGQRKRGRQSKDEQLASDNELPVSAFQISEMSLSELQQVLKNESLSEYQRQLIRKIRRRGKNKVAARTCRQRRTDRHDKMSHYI

[14] = target: Cytochrome P450 2C9 (Homo sapiens, UniProt P11712)
Sequence of Cytochrome P450 2C9 (P11712 whole entry): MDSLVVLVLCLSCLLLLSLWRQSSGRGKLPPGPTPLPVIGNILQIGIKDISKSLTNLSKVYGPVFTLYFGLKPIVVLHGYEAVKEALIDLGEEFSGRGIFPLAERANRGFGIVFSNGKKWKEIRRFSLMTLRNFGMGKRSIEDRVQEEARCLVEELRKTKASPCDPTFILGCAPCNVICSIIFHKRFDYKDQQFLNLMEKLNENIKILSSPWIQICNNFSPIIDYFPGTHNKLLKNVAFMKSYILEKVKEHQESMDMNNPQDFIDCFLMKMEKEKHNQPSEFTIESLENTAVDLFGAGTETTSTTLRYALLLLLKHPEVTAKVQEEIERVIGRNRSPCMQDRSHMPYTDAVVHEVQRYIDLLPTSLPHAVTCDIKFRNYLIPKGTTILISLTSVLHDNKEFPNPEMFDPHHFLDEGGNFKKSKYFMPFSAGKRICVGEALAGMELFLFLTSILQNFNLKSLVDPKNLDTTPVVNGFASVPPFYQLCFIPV

Structure (SMILES): COc1ccc(CN2C[C@@H](C)[C@H](OC)CN(C)C(=O)c3cc(NC(=O)c4nc5ccccc5s4)ccc3OC[C@H]2C)cc1
AC50 [1]: 4.08 µM (active)

IC50 [2]: > 20 µM (inactive)
Structure (SMILES): Oc1ccc(C[C@@H]2CNCCN2CCCCC2CCCCC2)cc1

Structure (SMILES): C[C@H](CO)N1C[C@H](C)[C@H](CN(C)Cc2ccc(C(=O)Nc3ccccc3N)cc2)Oc2ccc(NC(=O)Nc3ccc(F)cc3)cc2CC1=O
AC50 [3]: 2.26 µM (active)

Structure (SMILES): OC[C@@H]1Nc2ccc(C#Cc3cccc(F)c3)cc2[C@@H]2NCC[C@H]12
AC50 [1]: 2.83 µM (active)

Structure (SMILES): Cc1ccccc1S(=O)(=O)N1[C@H](CO)[C@@H](c2ccc(C#CC3CCCCC3)cc2)[C@@H]1C#N
AC50 [1]: 4.12 µM (active)

Structure (SMILES): C[C@@H]1CN([C@H](C)CO)C(=O)c2cccc(NC(=O)Nc3ccc(C(F)(F)F)cc3)c2O[C@H]1CN(C)C(=O)Nc1ccc(C(F)(F)F)cc1
AC50 [3]: 6.75 µM (active)

AC50 [4]: 20 µM (inconclusive)
AC50 [5]: 17.8 µM (inconclusive)
AC50 [6]: 15.8 µM (inconclusive)
Structure (SMILES): CC(C)CN(Cc1c(O)ccc2c3c(c(=O)oc12)CCC3)CC(C)C

Structure (SMILES): C[C@H](CO)N1C[C@H](C)[C@H](CN(C)Cc2ccc(C(=O)Nc3ccccc3N)cc2)Oc2ccc(NS(=O)(=O)c3cccs3)cc2CC1=O
AC50 [3]: 4.59 µM (active)

Structure (SMILES): O=C(Oc1ccccc1/C=C\C(=O)c1cc2ccccc2o1)c1cccc(F)c1
EC50 [7]: 8.35 µM (active)
EC50 [8]: 8.35 µM (active)

Structure (SMILES): C[C@H](CO)N1C[C@H](C)[C@H](CN(C)Cc2ccc(-c3ccccc3)cc2)Oc2ccc(NC(=O)Nc3ccc(C(F)(F)F)cc3)cc2C1=O
AC50 [3]: 5.37 µM (active)

Structure (SMILES): C[C@@H]1CCCCO[C@@H](CN(C)Cc2ccccc2)[C@@H](C)CN([C@H](C)CO)C(=O)c2cc(NC(=O)Nc3ccc(C(F)(F)F)cc3)ccc2O1
AC50 [3]: 1.64 µM (active)
AC50 [9]: 10.1 µM (active)

Structure (SMILES): COc1ccc(CN(C)C[C@@H]2Oc3ccc(NS(=O)(=O)c4ccc(Cl)cc4)cc3CC(=O)N([C@H](C)CO)C[C@H]2C)cc1
AC50 [3]: 2.61 µM (active)

Structure (SMILES): C[C@@H]1CN([C@H](C)CO)C(=O)Cc2cc(NS(=O)(=O)c3ccc(Cl)cc3)ccc2O[C@H]1CN(C)Cc1ccc(C(=O)Nc2ccccc2N)cc1
AC50 [3]: 4.53 µM (active)

Structure (SMILES): C[C@H](CO)N1C[C@H](C)[C@@H](CN(C)Cc2ccc(-c3ccccc3)cc2)Oc2c(NC(=O)NC3CCCCC3)cccc2C1=O
AC50 [3]: 4.23 µM (active)

Structure (SMILES): C[C@@H]1CN([C@@H](C)CO)C(=O)c2c(c3ccccc3n2C)-c2ccccc2CO[C@H]1CN(C)S(=O)(=O)c1ccc(C(F)(F)F)cc1
AC50 [1]: 3.02 µM (active)

Structure (SMILES): O=C(/C=C/c1ccc(-c2ccccc2[N+](=O)[O-])o1)c1ccc(F)cc1
EC50 [7]: 28.8 µM (active)
EC50 [8]: 35.7 µM (active)

Structure (SMILES): O=C(CCCCCCC(=O)Nc1ccccc1O)N/N=C/c1ccc(OCc2ccccc2)cc1O
AC50 [3]: 1.16 µM (active)

IC50 [2]: > 20 µM (inactive)
Structure (SMILES): COC(=O)[C@@]12CCCCN1[C@H](c1ccc(-c3cc(C(C)=O)cs3)c(OC)c1)[C@H]1C(=O)N(C)C(=O)[C@H]12

IC50 [2]: > 20 µM (inactive)
Structure (SMILES): O=C(C1=C[C@@H](c2coc3ccccc3c2=O)C[C@@H](OCc2ccc(CO)cc2)O1)N1CCN(Cc2ccc3c(c2)OCO3)CC1

Structure (SMILES): NC1=NC[C@H](c2ccccc2)N1CCCCC1CCCCC1
AC50 [10]: 4.23 µM (active)
IC50 [2]: > 20 µM (inactive)
AC50 [11]: 43.1 µM (active)
AC50 [12]: 3.11 µM (active)

Structure (SMILES): N#C[C@H]1[C@@H](c2ccc(C#CC3CC3)cc2)[C@H](CO)N1S(=O)(=O)c1ccccc1
AC50 [1]: 4.18 µM (active)

IC50 [2]: > 20 µM (inactive)
Structure (SMILES): CC(C)C[C@@H]1CN=C(N)N1C[C@@H]1CCCN1C[C@@H](C(C)C)N1C[C@@H](Cc2ccccc2)N(CCCC2CCCC2)C1=N

Structure (SMILES): C[C@@H]1CCCCO[C@H](CN(C)Cc2ccc(Cl)c(Cl)c2)[C@@H](C)CN([C@H](C)CO)C(=O)c2cc(NS(=O)(=O)c3ccc(Cl)cc3)ccc2O1
AC50 [3]: 4.22 µM (active)

AC50 [5]: 28.2 µM (inconclusive)
AC50 [6]: 12.6 µM (inconclusive)
IC50 [13]: > 100 µM (inactive)
AC50 [14]: 2 µM (inconclusive)
Structure (SMILES): Cn1c(-c2ccc(CN3CCCCC3)o2)nc2ccccc21

Structure (SMILES): CCCNC(=O)N1CC2(CCN(C(=O)CN(C)C)CC2)c2c(n(C)c3cc(OC)ccc23)[C@H]1CO
AC50 [1]: 4.6 µM (active)

AC50 [4]: 28.2 µM (inconclusive)
AC50 [5]: 3.55 µM (inconclusive)
AC50 [6]: 28.2 µM (inconclusive)
AC50 [14]: 5.01 µM (inconclusive)
Structure (SMILES): O=C(NC1CCCCC1)C12CC3CC(C1)CC(n1cncn1)(C3)C2

Structure (SMILES): C[C@H](CO)N1C[C@H](C)[C@@H](CN(C)Cc2ccc(C(=O)Nc3ccccc3N)cc2)Oc2c(NC(=O)Nc3ccc(F)cc3)cccc2C1=O
AC50 [3]: 4.17 µM (active)

Structure (SMILES): Cc1ccc(/C=C/C(=O)c2ccccc2)cc1
EC50 [7]: 22.6 µM (active)
EC50 [8]: 20.1 µM (active)
